Laboratory results from patent publication US11433086B2, “Combination of T-cell checkpoint inhibitors with inhibitors of e-selectin or CXCR4, or with heterobifunctional inhibitors of both E-selectin and CXCR4” (GlycoMimetics, Inc., priority 2016, dated 2022).

How the values were obtained:
[1] = test system: subcutaneous CT26.WT carcinoma xenografts; assay: Anti-cancer activity against subcutaneous CT26.WT carcinoma in Balb/c mice (tumor growth delay, response status); assay type: in vivo; parameters: key to Tumor Growth Delay, statistical comparison vs G1 (Vehicle (Saline)) / Tumor Growth Delay, statistical comparison vs G2 (GMI-1359) / Tumor Growth Delay, statistical comparison vs G3 (anti KLH; Rat IgG2b, LTF-2) / Tumor Growth Delay, statistical comparison vs G4 (anti-mPD-L1) / Tumor Growth Delay, statistical comparison vs G5 (GMI-1359 + anti KLH; Rat IgG2b, LTF-2) / Tumor Growth Delay, statistical comparison vs G6 (GMI-1359 + anti-mPD-L1) / Tumor Growth Delay, statistical comparison vs G7 (Vehicle (Saline)): + = P < 0.05; NS = Nonsignificant
Protocol: The anti-cancer activity of an anti-mPD-L1 antibody (10F.9G2) and GMI-1359 was compared to a rat isotype control antibody against indeterminate subcutaneous CT26.WT carcinoma xenografts in female Balb/c mice. An immune profile of each mouse was determined by sampling tumors and spleens, staining for several markers of an active immune response, and detecting the levels of these markers via flow cytometry. Flow cytometry markers included: T-Cells (CD4^+ and CD8^+), Regulatory T-Cells (Tregs). (CD4^+/CD25^+/FoxP3^+), MDSCs (CD11b^+/Gr1^+) and co-expression of CCR7^+ and CD62^+ added to the existing CD4/CD8 panel.
CT26.WT cells were grown in RPMI 1640 medium which was modified with 1 mM Na pyruvate, 10 mM HEPES, 2.5 g/L glucose and supplemented with 10% nonheat-inactivated Fetal Bovine Serum (FBS) and 1% 100X Penicillin/Streptomycin/L-Glutamine (PSG). The growth environment was maintained in an incubator with a 5% CO2 atmosphere at 37° C.
When expansion was complete, the cells were trypsinized using 0.25% trypsin-EDTA solution. Following cell detachment, the trypsin was inactivated by dilution with complete growth medium and any clumps of cells were separated by pipetting. The cells were centrifuged at 200 rcf for 8 minutes at 4° C., the supernatant was aspirated, and the pellet was re-suspended in cold Dulbecco's Phosphate Buffered Saline (DPBS) by pipetting. An aliquot of the homogeneous cell suspension was diluted in a trypan blue solution and counted using a Luna automated cell counter. The preimplantation cell viability was 92%. The cell suspension was centrifuged at 200 rcf for 8 minutes at 4° C. The supernatant was aspirated and the cell pellet was re-suspended in cold serum-free medium to generate a final concentration of 2.50E+06 trypan-excluding cells/mi. The cell suspension was maintained on wet ice during implantation. Following implantation, an aliquot of the remaining cells was diluted with a trypan blue solution and counted to determine the post-implantation cell viability (91%).
Test animals were implanted subcutaneously, high in the axilla (just under the fore limb) on Day 0 with 5.00E+05 cells in 0.2 ml of serum-free medium using a 27-gauge needle and syringe.
All mice were sorted into study groups based on body weights such that the mean body weights in each group was within 10% of the overall mean. Treatment began on Day 3.
GMI-1359 was dosed intraperitoneally at 40 mg/kg, every day for 20 days (Days 3-22) and every day for 12 days (Days 3-14) for Groups 2 and 8, respectively.
Anti-KLH; Rat IgG2b, LTF-2 was dosed intraperitoneally at 10 mg/kg, every 3 days for 2 treatments, with 3 days off for 2.5 weeks (Days 3, 6, 10, 13 and 17) for Group 3. Group 9 was dosed intraperitoneally at 10 mg/kg, every 3 days for 2 treatments, with 3 days off for 2 weeks (Days 3, 6, 10 and 13).
Groups 4 and 10: Anti-mPD-L1, 10F.9G2 was dosed intraperitoneally at 10 mg/kg, every 3 days for 2 treatments, with 3 days off for 2.5 weeks (Days 3, 6, 10, 13 and 17) for Group 4.
Group 10 was dosed intraperitoneally at 10 mg/kg, every 3 days for 2 treatments, with 3 days off for 2 weeks (Days 3, 6, 10 and 13).
GMI-1359 was dosed in combination with anti-KLH; Rat IgG2b, LTF intraperitoneally at 40 mg/kg and 10 mg/kg, respectively. In Group 5, GMI-1359 was dosed once a day for 20 days (Days 3-22) and anti-KLH; Rat IgG2b was given every 3 days for 2 treatments, with 3 days off for 2.5 weeks (Days 3, 6, 10, 13 and 17). In Group 11, GMI-1359 was dosed once a day for 12 days (Days 3-14) and anti-KLH; Rat IgG2b was dosed every 3 days for 2 treatments, with 3 days off for 2 weeks and (Days 3, 6, 10 and 13). On days when both compounds were dosed, GMI-1359 was given first and then anti-KLH; Rat IgG2b, LTF was given within minutes thereafter.
Groups 6 and 12: GMI-1359 and anti-mPD-L1, 10F.9G2 were dosed in a combination regimen intraperitoneally at 40 mg/kg and 10 mg/kg, respectively. […]

[2] = Assessment of side effects in CT26.WT tumor-bearing mice (body weight, mortality, necropsy); assay type: in vivo
Protocol: Animals were weighed on each day of treatment. Individual body weights were recorded 3 times weekly. Treatment-related weight loss in excess of 20% was considered unacceptably toxic. In this report, a dosage level is described as tolerated if treatment-related weight loss (during and two weeks after treatment) is <20% and mortality during this period in the absence of potentially lethal tumor burdens is ≤10%. FIG. 6 provides a graph of the percent mean body weight change for the 12 experimental groups.
Upon death or euthanasia, all animals were necropsied to provide a general assessment of potential cause of death and perhaps target organs for toxicity. The presence or absence of metastases was also noted. Remarkable observations of clinical signs and necropsy findings were tabulated as well as individual and group toxicity findings.
This is an individual toxicity parameter.

[3] = Groups 2-6: GMI-1359 40 mg/kg IP QDx20, antibody 10 mg/kg IP Days 3,6,10,13,17
[4] = listed as groups G8-G12 (sampling groups)
[5] = printed directly after the Group 8 / Group 12 values, group not named

CCC1CC(C(=O)NCCNCc2ccc(CN3CCCNCCNCCCNCC3)c(Br)c2)CC(OC2OC(CO)C(O)C(O[C@@H](CC3CCCCC3)C(=O)O)C2NC(C)=O)C1OC1OC(C)C(O)C(O)C1O (stereo partly shown) [GMI-1359]
disease status of the group ([1]; Group 2, single agent): all animals were identified with progressive disease
statistical significance of anti-tumor effect ([1]; Groups 2, 4, 6): did not produce a statistically significant (p>0.05) anti-tumor effect
regressions or tumor free survivors ([1]; Groups 2-6): no regressions or tumor free survivors
median time to evaluation size (750 mm^3) from the start of dosing ([1]; Groups 2-6: GMI-1359 40 mg/kg IP QDx20 (Days 3-22), antibody 10 mg/kg IP Days 3,6,10,13,17): 18.4 days
median post Day 9 tumor volume doubling time [1, 3]: 3.3 days
incidence of progressive disease ([1]; Groups 2-6, tumor burden >=2 fold that on Day 9): 100%
tumor growth delay (T-C) ([1]; Groups 2-6 vs Group 1 saline, evaluation size 750 mm^3, GMI-1359 40 mg/kg IP QDx20, antibody 10 mg/kg IP Days 3,6,10,13,17): 2.5 days
regressions or tumor free survivors ([1]; Groups 8-12 (sampling groups)): no regressions or tumor free survivors
incidence of progressive disease ([1]; Groups 8-12 (sampling groups, euthanized Day 15)): 100%
median time to evaluation size ([1]; Groups 8-12: GMI-1359 40 mg/kg IP QDx12 (Days 3-14), antibody 10 mg/kg IP Days 3,6,10,13, euthanized Day 15): 14.3 days
median post Day 9 tumor volume doubling time ([1]; Groups 8-12: GMI-1359 40 mg/kg IP QDx12, antibody 10 mg/kg IP Days 3,6,10,13, euthanized Day 15): 1.8 days
Tumor Growth Delay, statistical comparison vs G1 (Vehicle (Saline)) ([1]; listed as groups G2-G6, time to evaluation size 750 mm^3): NS
Tumor Growth Delay, statistical comparison vs G1 (Vehicle (Saline)) [1, 4]: NS
Tumor Growth Delay, statistical comparison vs G2 (GMI-1359) [1, 4]: NS
Tumor Growth Delay, statistical comparison vs G3 (anti KLH; Rat IgG2b, LTF-2) [1, 4]: NS
Tumor Growth Delay, statistical comparison vs G4 (anti-mPD-L1) [1, 4]: NS
Tumor Growth Delay, statistical comparison vs G5 (GMI-1359 + anti KLH; Rat IgG2b, LTF-2) [1, 4]: NS
Tumor Growth Delay, statistical comparison vs G6 (GMI-1359 + anti-mPD-L1) [1, 4]: NS
Tumor Growth Delay, statistical comparison vs G7 (Vehicle (Saline)) [1, 4]: NS
median time to progression [1, 5]: 14.5 days
progression free survival period [1, 5]: 5.5 days
mean weight gain during the treatment regimen ([2]; Groups 2-6): 16.8%
treatment-related mortality ([2]; Groups 2-6): no treatment-related mortality
weight loss associated with treatment ([2]; Groups 2-6): No weight loss
tolerance of treatment [2, 3]: well tolerated
mean weight gain during the treatment regimen ([2]; Groups 8-12): 7.0%
treatment-related mortality ([2]; Groups 8-12): no treatment-related mortality
weight loss associated with treatment ([2]; Groups 8-12): No weight loss
necropsy findings ([2]; Groups 8-12, Day 15): unremarkable
tolerance of treatment ([2]; Groups 8-12: GMI-1359 40 mg/kg IP QDx12, antibody 10 mg/kg IP Days 3,6,10,13): well tolerated
tolerance of treatment, summary ([2]; summary over both regimens / all groups): well tolerated
